Assay results published in the CheMixHub viscosity set.
Several values for one entry are separate records, joined by “and”; a condition that tells them apart may be missing. Equal values may be shown once. ± gives the uncertainty stated by the source.

Test: xn = mol fraction of the nth substance listed

**Q.** Which viscosity (293.15 K, 100 kPa, x1 = 0.3) does the source give for `C[N+](C)(C)CCO.[Cl-]` + OCC(O)CO here?
**A.** 519 ± 41 mPa·s

**Q.** And the viscosity (293.15 K, 100 kPa, x1 = 0.333)?
**A.** 561.4 ± 28 mPa·s

**Q.** And the viscosity (293.15 K, 101.3 kPa, x2 = 0.7)?
**A.** 516.1 ± 52 mPa·s

**Q.** What about the viscosity (293.42 K, 101.33 kPa, x2 = 0.8) of the same compound?
**A.** 167.1 ± 49 mPa·s

**Q.** What about the viscosity (293.43 K, 101.33 kPa, x2 = 0.7) of the same compound?
**A.** 267.9 ± 72 mPa·s

**Q.** What about the viscosity (294.19 K, 101.33 kPa, x2 = 0.7) of the same compound?
**A.** 254.1 ± 64 mPa·s

**Q.** And the viscosity (294.4 K, 101.33 kPa, x2 = 0.8)?
**A.** 156.8 ± 36 mPa·s

**Q.** What about the viscosity (295.2 K, 101.33 kPa, x2 = 0.8) of the same compound?
**A.** 148.2 ± 43 mPa·s

**Q.** And the viscosity (295.27 K, 101.33 kPa, x2 = 0.7)?
**A.** 236.6 ± 62 mPa·s

**Q.** And the viscosity (296.05 K, 101.33 kPa, x2 = 0.8)?
**A.** 138.9 ± 40 mPa·s

**Q.** What about the viscosity (296.09 K, 101.33 kPa, x2 = 0.7) of the same compound?
**A.** 222.7 ± 57 mPa·s

**Q.** And the viscosity (296.85 K, 101.33 kPa, x2 = 0.7)?
**A.** 209.9 ± 53 mPa·s

**Q.** And the viscosity (296.95 K, 101.33 kPa, x2 = 0.8)?
**A.** 130 ± 37 mPa·s

**Q.** What about the viscosity (297.09 K, 101 kPa, x1 = 0.333) of the same compound?
**A.** 348.4 ± 12 mPa·s

**Q.** And the viscosity (297.68 K, 101.33 kPa, x2 = 0.8)?
**A.** 123.2 ± 35 mPa·s

**Q.** What about the viscosity (297.78 K, 101.33 kPa, x2 = 0.7) of the same compound?
**A.** 195.3 ± 49 mPa·s

**Q.** And the viscosity (298.15 K, 100 kPa, x1 = 0.3)?
**A.** 368 ± 25 mPa·s

**Q.** And the viscosity (298.15 K, 100 kPa, x1 = 0.33)?
**A.** 348 ± 23 mPa·s

**Q.** What about the viscosity (298.15 K, 100 kPa, x1 = 0.333) of the same compound?
**A.** 259 ± 9 mPa·s and 386.3 ± 18 mPa·s

**Q.** And the viscosity (298.15 K, 101 kPa, x1 = 0.167)?
**A.** 304 ± 32 mPa·s

**Q.** What about the viscosity (298.15 K, 101 kPa, x1 = 0.2) of the same compound?
**A.** 353.5 ± 30 mPa·s and 244 ± 26 mPa·s

**Q.** And the viscosity (298.15 K, 101 kPa, x1 = 0.25)?
**A.** 338.7 ± 29 mPa·s and 261 ± 28 mPa·s

**Q.** And the viscosity (298.15 K, 101 kPa, x1 = 0.33)?
**A.** 318.1 ± 26 mPa·s

**Q.** What about the viscosity (298.15 K, 101 kPa, x1 = 0.333) of the same compound?
**A.** 200 ± 21 mPa·s and 283.2 ± 13 mPa·s

**Q.** And the viscosity (298.15 K, 101.33 kPa, x2 = 0.7)?
**A.** 301 ± 34 mPa·s

**Q.** What about the viscosity (298.73 K, 101.33 kPa, x2 = 0.7) of the same compound?
**A.** 184.5 ± 46 mPa·s

**Q.** And the viscosity (298.74 K, 101.33 kPa, x2 = 0.8)?
**A.** 115.2 ± 33 mPa·s

**Q.** What about the viscosity (299.46 K, 101.33 kPa, x2 = 0.7) of the same compound?
**A.** 174.9 ± 43 mPa·s

**Q.** And the viscosity (299.66 K, 101.33 kPa, x2 = 0.8)?
**A.** 108.3 ± 30 mPa·s

**Q.** And the viscosity (300.32 K, 101.33 kPa, x2 = 0.7)?
**A.** 163 ± 40 mPa·s

**Q.** What about the viscosity (300.43 K, 101.33 kPa, x2 = 0.8) of the same compound?
**A.** 101.9 ± 28 mPa·s

**Q.** What about the viscosity (301.05 K, 101.33 kPa, x2 = 0.8) of the same compound?
**A.** 96.5 ± 26 mPa·s

**Q.** And the viscosity (301.22 K, 101.33 kPa, x2 = 0.7)?
**A.** 152.2 ± 37 mPa·s

**Q.** What about the viscosity (301.89 K, 101 kPa, x1 = 0.333) of the same compound?
**A.** 263.5 ± 8.4 mPa·s

**Q.** And the viscosity (302.07 K, 101.33 kPa, x2 = 0.7)?
**A.** 144.8 ± 34 mPa·s

**Q.** What about the viscosity (302.09 K, 101.33 kPa, x2 = 0.8) of the same compound?
**A.** 90.62 ± 25 mPa·s

**Q.** What about the viscosity (303 K, 101 kPa, x1 = 0.3333) of the same compound?
**A.** 428.4 ± 32 mPa·s

**Q.** And the viscosity (303.03 K, 101.33 kPa, x2 = 0.7)?
**A.** 137 ± 32 mPa·s

**Q.** And the viscosity (303.04 K, 101.33 kPa, x2 = 0.8)?
**A.** 85.38 ± 24 mPa·s

**Q.** And the viscosity (303.15 K, 100 kPa, x1 = 0.33)?
**A.** 255.6 ± 14 mPa·s

**Q.** And the viscosity (303.15 K, 100 kPa, x1 = 0.333)?
**A.** 290.9 ± 13 mPa·s

**Q.** What about the viscosity (303.15 K, 101 kPa, x1 = 0.2) of the same compound?
**A.** 259.6 ± 19 mPa·s

**Q.** What about the viscosity (303.15 K, 101 kPa, x1 = 0.25) of the same compound?
**A.** 250.4 ± 18 mPa·s

**Q.** What about the viscosity (303.15 K, 101 kPa, x1 = 0.33) of the same compound?
**A.** 239 ± 17 mPa·s

**Q.** And the viscosity (303.97 K, 101.33 kPa, x2 = 0.7)?
**A.** 128 ± 30 mPa·s

**Q.** And the viscosity (303.97 K, 101.33 kPa, x2 = 0.8)?
**A.** 81.55 ± 22 mPa·s

**Q.** What about the viscosity (304.77 K, 101.33 kPa, x2 = 0.7) of the same compound?
**A.** 121.8 ± 28 mPa·s

**Q.** And the viscosity (304.87 K, 101.33 kPa, x2 = 0.8)?
**A.** 76.53 ± 21 mPa·s

**Q.** What about the viscosity (305.64 K, 101.33 kPa, x2 = 0.7) of the same compound?
**A.** 114.5 ± 26 mPa·s

**Q.** What about the viscosity (305.7 K, 101.33 kPa, x2 = 0.8) of the same compound?
**A.** 72.8 ± 19 mPa·s

**Q.** What about the viscosity (306.52 K, 101.33 kPa, x2 = 0.7) of the same compound?
**A.** 109 ± 25 mPa·s

**Q.** And the viscosity (306.58 K, 101.33 kPa, x2 = 0.8)?
**A.** 69.11 ± 19 mPa·s

**Q.** What about the viscosity (307.07 K, 101 kPa, x1 = 0.333) of the same compound?
**A.** 187 ± 5 mPa·s

**Q.** What about the viscosity (307.4 K, 101.33 kPa, x2 = 0.7) of the same compound?
**A.** 103.9 ± 24 mPa·s

**Q.** And the viscosity (307.47 K, 101.33 kPa, x2 = 0.8)?
**A.** 65.09 ± 18 mPa·s

**Q.** And the viscosity (308 K, 101 kPa, x1 = 0.3333)?
**A.** 312 ± 13 mPa·s

**Q.** And the viscosity (308.15 K, 100 kPa, x1 = 0.3)?
**A.** 198 ± 9 mPa·s

**Q.** What about the viscosity (308.15 K, 100 kPa, x1 = 0.33) of the same compound?
**A.** 190.3 ± 8.6 mPa·s

**Q.** What about the viscosity (308.15 K, 100 kPa, x1 = 0.333) of the same compound?
**A.** 216.8 ± 9.6 mPa·s

**Q.** What about the viscosity (308.15 K, 101 kPa, x1 = 0.2) of the same compound?
**A.** 192.5 ± 12 mPa·s

**Q.** What about the viscosity (308.15 K, 101 kPa, x1 = 0.25) of the same compound?
**A.** 187 ± 11 mPa·s

**Q.** What about the viscosity (308.15 K, 101 kPa, x1 = 0.33) of the same compound?
**A.** 181.2 ± 10 mPa·s
